Experimental data: patent publication US5128447A, “Synthetic peptide antagonists of neurokinin A, salts thereof and respective preparation processes” (A. Menarini Industrie Farmaceutiche Riunite S.r.l., priority 1989, dated 1992)
Non-standard residues stand in square brackets, D forms with d. Residues, ends and D or L forms follow the SMILES beside them.

The molecules below were run against T1, neurokinin A receptor (NK-2 receptor) (Rattus norvegicus, UniProt P16610) (assay: cell-based).
T1 sequence (P16610 1-390): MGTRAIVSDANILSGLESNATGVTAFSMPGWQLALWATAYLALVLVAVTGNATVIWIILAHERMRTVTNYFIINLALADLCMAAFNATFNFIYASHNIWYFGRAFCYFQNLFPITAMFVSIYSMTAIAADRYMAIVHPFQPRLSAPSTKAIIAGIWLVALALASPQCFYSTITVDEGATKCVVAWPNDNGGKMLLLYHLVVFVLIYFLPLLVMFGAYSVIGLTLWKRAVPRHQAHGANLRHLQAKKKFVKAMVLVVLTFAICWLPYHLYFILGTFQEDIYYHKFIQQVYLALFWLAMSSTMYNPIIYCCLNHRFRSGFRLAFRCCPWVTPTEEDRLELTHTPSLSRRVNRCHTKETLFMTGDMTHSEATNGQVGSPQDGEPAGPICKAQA
Protocol: The capacity of the peptides described in the present invention of interacting with the neurokinin A receptor as agonists or antagonists was evaluated by means of an in vitro assay using a preparation, in which the biological response produced by tachykinin and related peptides is exclusively determined by the neuro-kinin A receptor (NK-2 receptor). Such a preparation is the isolated vas deferens of rats, where the tachykinins produce a potentiation of the contractions caused by the intramural nerves following an electrical stimulation. The determination of the activity of the peptides in this preparation was carried out as described by Rovero et al. (Neuropeptides 10, 355, 1987). The agonistic activity of the peptides assayed is expressed as pD2, which represents the […] of the molar concentration of agonist which produces 50% of the maximum effect. […] The pD2 were calculated according to Van Rossum (Arch. Int. Pharmacodyn. 143, 249, 1963), and the pA 2 were calculated from the analysis of the Schild plot (O. Arunlakshana and H. O. Schild, Br. J. Pharmacol., 14, 48, 1959).
The agonists produce a potentiation of the contractions caused by the nerve of the isolated vas deferens of rats. The antagonistic activity is evaluated as the capacity of the product to produce a parallel displacement towards the right of the concentration/response curve of neurokinin A after a contact time of 15 minutes.
For CSCC[C@H](NC(=O)[C@@H](Cc1c[nH]c2ccccc12)NC(=O)[C@@H](Cc1c[nH]c2ccccc12)NC(=O)[C@@H](NC(=O)[C@@H](Cc1c[nH]c2ccccc12)NC(=O)[C@H](Cc1ccc(O)cc1)NC(=O)[C@H](CC(=O)O)NC(=O)[C@@H](N)CCCNC(=N)N)C(C)C)C(N)=O [H--Arg--Asp--Tyr--DTrp--Val--DTrp--DTrp--Met--NH2] (H-RDY[dW]V[dW][dW]M-NH2), the Kb was 0.251 µM.
CC(C)[C@H](NC(=O)[C@@H](Cc1c[nH]c2ccccc12)NC(=O)[C@H](Cc1ccc(O)cc1)NC(=O)[C@H](CC(=O)O)NC(=O)[C@@H](N)CCCNC(=N)N)C(=O)N[C@H](Cc1c[nH]c2ccccc12)C(=O)N[C@H](Cc1c[nH]c2ccccc12)C(=O)N[C@@H](Cc1ccccc1)C(N)=O [H--Arg--Asp--Tyr--DTrp--Val--DTrp--DTrp--Phe--NH2] (H-RDY[dW]V[dW][dW]F-NH2) gave a Kb of 0.575 µM.
Work on CC(C)[C@H](NC(=O)[C@@H](Cc1c[nH]c2ccccc12)NC(=O)[C@H](Cc1ccc(O)cc1)NC(=O)[C@@H](N)CC(=O)O)C(=O)N[C@H](Cc1c[nH]c2ccccc12)C(=O)N[C@H](Cc1c[nH]c2ccccc12)C(=O)N[C@@H](CCCNC(=N)N)C(N)=O [H--Asp--Tyr--DTrp--Val--DTrp--DTrp--Arg--NH2] (H-DY[dW]V[dW][dW]R-NH2) yielded a Kb of 0.251 µM.
Molecule CC(C)[C@H](NC(=O)[C@@H](Cc1c[nH]c2ccccc12)NC(=O)[C@H](Cc1ccc(O)cc1)NC(=O)[C@@H](N)CC(=O)O)C(=O)N[C@H](Cc1c[nH]c2ccccc12)C(=O)N[C@H](Cc1c[nH]c2ccccc12)C(=O)N[C@@H](Cc1ccc(O)cc1)C(N)=O [H--Asp--Tyr--DTrp--Val--DTrp--DTrp--Tyr--NH2] (H-DY[dW]V[dW][dW]Y-NH2) has a Kb of 0.191 µM.
CC(C)[C@H](NC(=O)[C@@H](Cc1c[nH]c2ccccc12)NC(=O)[C@H](Cc1ccc(O)cc1)NC(=O)[C@H](CC(=O)O)NC(=O)[C@@H](N)CCCCN)C(=O)N[C@H](Cc1c[nH]c2ccccc12)C(=O)N[C@H](Cc1c[nH]c2ccccc12)C(=O)N[C@@H](CCCNC(=N)N)C(N)=O [H--Lys--Asp--Tyr--DTrp--Val--DTrp--DTrp--Arg--NH2] (H-KDY[dW]V[dW][dW]R-NH2) gave a Kb of 0.339 µM.
Work on CC(C)[C@H](NC(=O)[C@@H](Cc1c[nH]c2ccccc12)NC(=O)[C@H](Cc1ccc(O)cc1)NC(=O)[C@H](CC(=O)O)NC(=O)[C@@H](N)[C@@H](C)O)C(=O)N[C@H](Cc1c[nH]c2ccccc12)C(=O)N[C@H](Cc1c[nH]c2ccccc12)C(=O)N[C@@H](CCCNC(=N)N)C(N)=O [H--Thr--Asp--Tyr--DTrp--Val--DTrp--DTrp--Arg--NH2] (H-TDY[dW]V[dW][dW]R-NH2) yielded a Kb of 0.251 µM.
CC(C)[C@H](NC(=O)[C@@H](Cc1c[nH]c2ccccc12)NC(=O)[C@H](Cc1ccc(O)cc1)NC(=O)[C@H](CC(=O)O)NC(=O)[C@@H](N)CCCNC(=N)N)C(=O)N[C@H](Cc1c[nH]c2ccccc12)C(=O)N[C@H](Cc1c[nH]c2ccccc12)C(=O)N[C@@H](CCCNC(=N)N)C(N)=O [H-Arg-Asp-Tyr-DTrp-Val-DTrp-DTrp-Arg-NH2] (H-RDY[dW]V[dW][dW]R-NH2) showed a Kb of 0.316 µM.
CC(C)[C@H](NC(=O)[C@@H](Cc1c[nH]c2ccccc12)NC(=O)[C@H](Cc1ccc(O)cc1)NC(=O)[C@@H](N)CC(=O)O)C(=O)N[C@H](Cc1c[nH]c2ccccc12)C(=O)N[C@H](Cc1c[nH]c2ccccc12)C(=O)N[C@H](Cc1c[nH]c2ccccc12)C(N)=O [H-Asp-Tyr-DTrp-Val-DTrp-DTrp-DTrp-NH2] (H-DY[dW]V[dW][dW][dW]-NH2) gave a Kb of 0.155 µM.
In the case of CSCC[C@H](NC(=O)[C@H](CC(C)C)NC(=O)CNC(=O)[C@@H](NC(=O)[C@H](Cc1ccccc1)NC(=O)[C@H](CO)NC(=O)[C@@H](N)CC(=O)O)C(C)C)C(N)=O [NKA(4-10), reference compound], the EC50 is reported as 1.05 µM.
